The record followed here is ChEMBL document CHEMBL5584296, “Discovery of Novel Pyrimidine-Based Derivatives as Nav1.2 Inhibitors with Efficacy in Mouse Models of Epilepsy” (J Med Chem, 2024).

The structures appear in SMILES notation.

Type in all cases: cell-based
The target of assay [1] is T1, Sodium channel protein type 2 subunit alpha (Homo sapiens, UniProt Q99250). The assay is described as follows: Inhibition of human Nav1.2 expressed in HEK293 cells assessed as test to control ratio at 10 uM measured after 5 mins by whole cell voltage clamp electrophysiological analysis.
Assay [2] concerns the target T1, Sodium channel protein type 2 subunit alpha. The assay is described as follows: Inhibition of human Nav1.2 expressed in HEK293 cells assessed as test to control ratio at 1 uM measured after 5 mins by whole cell voltage clamp electrophysiological analysis.
For assay [3] the target is unchanged. The assay is described as follows: Inhibition of human Nav1.2 expressed in HEK293 cells assessed as test to control ratio at 0.1 uM measured after 5 mins by whole cell voltage clamp electrophysiological analysis.

T1 sequence (Q99250 whole entry, looked up): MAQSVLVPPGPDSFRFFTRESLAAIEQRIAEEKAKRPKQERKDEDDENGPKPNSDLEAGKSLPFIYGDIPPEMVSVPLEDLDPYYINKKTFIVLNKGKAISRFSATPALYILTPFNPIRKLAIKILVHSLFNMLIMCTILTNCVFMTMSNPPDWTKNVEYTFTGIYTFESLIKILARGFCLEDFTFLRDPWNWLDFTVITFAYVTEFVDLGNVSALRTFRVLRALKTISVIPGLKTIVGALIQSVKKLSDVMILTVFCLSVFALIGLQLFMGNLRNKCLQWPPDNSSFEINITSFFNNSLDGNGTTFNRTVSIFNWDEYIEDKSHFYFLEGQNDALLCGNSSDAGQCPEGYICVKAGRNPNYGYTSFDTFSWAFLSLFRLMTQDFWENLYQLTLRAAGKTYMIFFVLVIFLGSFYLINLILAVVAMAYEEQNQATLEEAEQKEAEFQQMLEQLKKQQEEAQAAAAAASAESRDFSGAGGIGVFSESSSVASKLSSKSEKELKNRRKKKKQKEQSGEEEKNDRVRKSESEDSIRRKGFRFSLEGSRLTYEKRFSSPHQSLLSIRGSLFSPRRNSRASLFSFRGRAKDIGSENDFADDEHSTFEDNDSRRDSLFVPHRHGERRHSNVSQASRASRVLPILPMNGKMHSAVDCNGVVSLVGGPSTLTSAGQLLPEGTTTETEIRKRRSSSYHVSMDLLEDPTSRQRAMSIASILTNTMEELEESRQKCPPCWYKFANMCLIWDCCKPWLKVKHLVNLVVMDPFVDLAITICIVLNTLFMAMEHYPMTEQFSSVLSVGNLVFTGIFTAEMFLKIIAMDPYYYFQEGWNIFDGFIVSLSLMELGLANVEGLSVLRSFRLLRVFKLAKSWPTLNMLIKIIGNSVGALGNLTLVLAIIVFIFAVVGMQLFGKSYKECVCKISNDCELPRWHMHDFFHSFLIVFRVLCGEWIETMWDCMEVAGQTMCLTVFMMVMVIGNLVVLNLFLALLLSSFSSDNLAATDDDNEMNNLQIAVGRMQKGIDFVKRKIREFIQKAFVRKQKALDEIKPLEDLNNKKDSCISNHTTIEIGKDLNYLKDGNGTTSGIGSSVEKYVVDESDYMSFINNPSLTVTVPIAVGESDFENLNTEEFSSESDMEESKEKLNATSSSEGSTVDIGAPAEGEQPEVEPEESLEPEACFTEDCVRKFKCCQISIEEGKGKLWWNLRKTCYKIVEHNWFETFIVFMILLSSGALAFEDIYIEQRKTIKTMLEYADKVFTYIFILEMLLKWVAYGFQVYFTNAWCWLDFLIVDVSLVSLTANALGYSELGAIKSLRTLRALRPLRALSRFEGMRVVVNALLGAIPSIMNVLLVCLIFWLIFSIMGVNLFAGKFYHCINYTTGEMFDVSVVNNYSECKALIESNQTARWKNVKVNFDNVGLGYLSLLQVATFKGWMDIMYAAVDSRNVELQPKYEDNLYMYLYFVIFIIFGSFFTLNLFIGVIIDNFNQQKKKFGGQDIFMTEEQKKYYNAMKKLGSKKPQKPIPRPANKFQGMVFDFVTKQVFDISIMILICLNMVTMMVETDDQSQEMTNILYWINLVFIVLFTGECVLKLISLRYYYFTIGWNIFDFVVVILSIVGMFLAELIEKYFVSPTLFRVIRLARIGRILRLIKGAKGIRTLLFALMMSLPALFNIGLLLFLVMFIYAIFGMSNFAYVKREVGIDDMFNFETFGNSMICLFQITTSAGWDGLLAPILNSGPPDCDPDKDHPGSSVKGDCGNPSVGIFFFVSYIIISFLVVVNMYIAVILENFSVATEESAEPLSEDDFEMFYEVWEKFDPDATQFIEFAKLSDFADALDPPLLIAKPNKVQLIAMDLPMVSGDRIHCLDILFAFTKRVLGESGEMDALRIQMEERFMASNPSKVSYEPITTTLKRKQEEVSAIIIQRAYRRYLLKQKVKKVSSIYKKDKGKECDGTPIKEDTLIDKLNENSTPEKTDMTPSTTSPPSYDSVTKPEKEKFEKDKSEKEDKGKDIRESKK

Regarding `COc1cccc(-c2cc(N3CCc4nc(C)sc4C3)nc(N)n2)c1`, the T/C in assay [1] was 0.79. `COc1cccc(-c2cc(N3CCC(C)c4ccccc4C3)nc(N)n2)c1` (centres undefined): the values for the T/C in assay [2], in assay [3] and in assay [1] were 0.12, 0.95 and 0.11, respectively.

As for `Nc1nc(-c2cccc3ccccc23)cc(N2CCCc3ccccc3C2)n1`, the T/C in assay [2] worked out at 0.85; in assay [1] it was 0.08.

In the case of `COc1cccc(-c2cc(N3CCC4(CCOCC4)C3)nc(N)n2)c1`, the T/C in assay [2] worked out at 0.94; in assay [3] it was 0.97; in assay [1], 0.57. The like results for `COc1cccc(-c2cc(N3CCc4ccccc4C3)nc(N)n2)c1` were, in that order, 0.35, 0.68 and 0.13. On the same counts, the results for `COc1cccc(-c2cc(N3CCCc4cc(F)ccc4C3)nc(N)n2)c1` are 0.03, 0.39 and 0.04. Turning to `COc1cccc(-c2cc(N3CCCc4ccccc4C3)nc(NS(=O)(=O)c3ccc(Cl)cc3)n2)c1`, in assay [1], the T/C was 0.65.

`COc1cccc(-c2cc(N3CCCc4ccc(C)cc4C3)nc(SC)n2)c1`: the T/C in assay [1] was 0.66. `COc1cccc(-c2cc(N3CCCc4ccc(OCc5ccccc5)cc4C3)nc(N)n2)c1`: the T/C in assay [2] stood at 0.11; in assay [3] it was 0.77; in assay [1] it was 0.02. The like results for `COc1cccc(-c2cc(N3CCCc4ccc(C)cc4C3)ncn2)c1` were, in that order, 0.43, 0.8 and 0.13.

As for `Nc1nc(-c2cccn2C2CCCCO2)cc(N2CCCc3ccccc3C2)n1` (centres undefined), the T/C in assay [2] was found to be 0.77; in assay [1], 0.19. The like results for `Nc1nc(-c2ccc3c(c2)OCCC3)cc(N2CCCc3ccccc3C2)n1` were, in that order, 0.72 and 0.07. The like results for `CC(C)Oc1ccc(-c2cc(N3CCCc4ccccc4C3)nc(N)n2)cc1` were, in that order, 0.87 and 0.37.

Turning to `Nc1nc(-c2ccc(OC3CCCCO3)cc2)cc(N2CCCc3ccccc3C2)n1` (centres undefined), the T/C amounted to 0.76 in assay [2] and 0.14 in assay [1].

For `COc1cccc(-c2cc(N3Cc4ccccc4C3)nc(N)n2)c1`, the T/C in assay [1] came out at 0.75. As for `COc1cccc(-c2cc(N3CCCc4cc(F)c(F)cc4C3)nc(N)n2)c1`, the results for the T/C in assay [2] and in assay [1] were 0.65 and 0.43, respectively. On the same counts, the results for `COc1cccc(-c2cc(N3CC4CC(C3)c3ccccc34)nc(NS(=O)(=O)c3ccc(C)cc3C)n2)c1` are 0.84 and 0.45.

Regarding `CN1C[C@H](CNC(=O)OCc2ccccc2)C[C@@H]2c3cccc4c3c(cn4C)C[C@H]21`, the T/C in assay [1] turned out to be 0.01.

In the case of `Nc1nc(-c2ccc(Oc3ccccc3)cc2)cc(N2CCCc3ccccc3C2)n1`, the T/C turned out to be 0.79 in assay [2] and 0.46 in assay [1]. `COc1cccc(-c2cc(N3CC4CC(C3)c3ccccc34)nc(NS(=O)(=O)c3ccc(F)cc3)n2)c1`: the figures for the T/C in assay [2] and in assay [1] were 0.56 and 0.28, respectively.

Turning to `Nc1nc(-c2ccc3c(c2)CCO3)cc(N2CCCc3ccccc3C2)n1`, the results for the T/C in assay [2] and in assay [1] were 0.82 and 0.07, respectively. On the same counts, the results for `Nc1nc(-c2cccc(OC(F)(F)F)c2)cc(N2CCCc3ccccc3C2)n1` are 0.81 and 0.07. Turning to `COc1cccc(-c2cc(N3CCCc4ccc(C)cc4C3)nc(S(C)(=O)=O)n2)c1`, the T/C in assay [1] was 0.81. Consider `COc1cccc(-c2cc(N3CC4CC(C3)c3ccccc34)nc(NS(=O)(=O)c3cccc(C)c3)n2)c1`, for which the results for the T/C in assay [2] and in assay [1] were 0.68 and 0.33, respectively. On the same counts, the results for `COc1cccc(-c2cc(N3CC4CC(C3)c3ccccc34)nc(NS(=O)(=O)c3ccc(C)cc3)n2)c1` are 0.71 and 0.31. On to `COc1cccc(-c2cc(N3CCCc4ccc(C)cc4C3)nc(-c3ccccc3)n2)c1`, for which the T/C in assay [1] stood at 0.91. In the case of `COc1cccc(-c2cc(N3CCCc4c(cc(OC)cc4OC)C3)nc(N)n2)c1`, the T/C stood at 0.53 in assay [2] and 0.14 in assay [1].

As to `COc1cccc(-c2cc(N3CCCc4ccc(C)cc4C3)nc(C#N)n2)c1`, the T/C in assay [1] was determined as 0.86.
